Reference: patent US7687508B2, “Cyclic derivatives as modulators of chemokine receptor activity” (Bristol-Myers Squibb Company, priority 2006, dated 2010)

Experiments:
hERG [1] = target: T1, hERG (Homo sapiens, UniProt Q12809); experiment: hERG flux (Tl+ flux, FLIPR) in HEK293 cells; type: cell-based; conditions: HEK293 cells stably expressing hERG
T1 construct: expressed in transfected cells
Method: HEK293 cells stably-expressing hERG channels were grown (37° C., 5% CO2) in Dulbecco's Modified Eagle's Media supplemented with 10% Sigma fetal bovine serum, non-essential amino acids, 2 mM L-glutamine and 500 μg/ml G418, at incubator.
A 2 mM stock of BTC-AM dye (Molecular Probes, Eugene, Oreg.) was prepared in 100% DMSO and then added 1:1 to 10% (w/v) pluronic acid in DMSO on the day of assay. The dye was then diluted in hERG external EP buffer (140 mM NaCl, 4.0 mM KCl, 1.8 mM CaCl2, 1.0 mM MgCl2, 10 mM HEPES, pH 7.3 and 10 mM glucose; all buffer components obtained from Sigma Chemical). […] Cells are incubated at 21° C. for 45 minutes.
These compounds were then serially-diluted at a 1:2 ratio in DMSO in columns 1-10 and 11-20 of a 384-well plate. Assay-ready plates were generated by stamping 2.5 μl from the DMSO serially diluted plate, which was prepared on the Velocity 11 BioCel. Aqueous plates were created by adding 48 μl of EP buffer and then were diluted 30-45 minutes before the assay was read on the FLIPR. […] Final DMSO concentration in the assay is 1%. Assay-ready aqueous plates were prepared and diluted on a Cybio liquid handler.
Data collection proceeded every second for 48 seconds, and then continued every three seconds for an additional 2 minutes.
The dynamic range of the assay was determined from blanks and totals wells. The totals wells (columns 21 and 22) define maximal hERG activation for the plate (no test compound present), and the blanks wells (columns 23 and 24) define 100% hERG inhibition. […] Raw data points in each sample well were first corrected for cell/signal variation, negative control (blanks) background, and normalized to the positive controls (totals) using the online FLIPR software. Test compound concentration response curves for the hERG Tl^+ flux data were then fit using Excel Fit (ID Business Solutions Limited, Surrey, UK) with a single-site logistic equation, Y=A+((B−A)/1+((C/X)^D))) where A=maximal inhibition. Data were analyzed by fitting maximum amplitudes of change in fluorescence for Tl^+ flux for a given condition of test compound.

[2] = Parallel Artificial Membrane Permeability Assay (PAMPA); type: in vitro ADME; conditions: apical and basolateral pH 7.4
Method: All experiments are conducted in triplicate determinations.

hERG [3] = target: T1, hERG; experiment: hERG patch clamp (whole-cell, HEK-293); type: cell-based; conditions: for inhibition at 10000 nM: pH 7.4, 10,000 nM; for inhibition at 30000 nM: pH 7.4, 30,000 nM
[4] = target: human cardiac sodium channel, SCN5A (Nav1.5) (Homo sapiens, UniProt Q14524); experiment: Sodium channel patch clamp (whole-cell, HEK-293); type: cell-based; conditions: HEK-293 cells expressing human cardiac sodium channel SCN5A, 30,000 nM, read-out: Na+ channel patch clamp (% inhibition)
Method: The compound was tested at a protein-free aqueous buffer. For determining steady state inhibition, sodium currents were elicited every 5 seconds using the following voltage protocol: cells were held at a potential of −90 mV and stepped to −20 mV for 60 ms. Effects were calculated by measuring inhibition of peak current during the test pulse to −20 mV. Rate-dependence of inhibition was assessed by stimulation at frequencies of 1 Hz and 4 Hz.

human CCR2 [5] = target: T2, human CCR2 (Homo sapiens, UniProt P41597); experiment: Human peripheral blood mononuclear cell binding (CCR2 binding), 125I-human MCP-1 tracer; set-up: hPBMCs were isolated from human leukopak (Biological Specialty Inc.); endogenous in cells; host or cells: human peripheral blood mononuclear cells from leukopak (Biological Specialty Inc.); conditions: hPBMCs, 125I-MCP-1; figure in parentheses in the cell not copied (count of determinations); read-out: CCR2 Binding IC50
T2 sequence (P41597 1-360 isoform P41597-2): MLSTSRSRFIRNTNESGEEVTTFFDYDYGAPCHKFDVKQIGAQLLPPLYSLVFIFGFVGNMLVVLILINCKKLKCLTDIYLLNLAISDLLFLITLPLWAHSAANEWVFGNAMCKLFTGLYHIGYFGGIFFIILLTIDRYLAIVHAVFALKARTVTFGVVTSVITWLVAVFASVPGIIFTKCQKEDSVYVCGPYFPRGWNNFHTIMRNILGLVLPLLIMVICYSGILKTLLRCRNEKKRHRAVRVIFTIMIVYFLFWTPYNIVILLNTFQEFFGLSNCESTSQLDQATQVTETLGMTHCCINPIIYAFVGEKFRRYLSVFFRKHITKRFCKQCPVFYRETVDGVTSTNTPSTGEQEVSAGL
Method: See also: Yoshimura et al., J. Immunol. 1990, 145, 292. The human CCR2 binding assay was established with human peripheral blood mononuclear cells (hPBMCs) using ^125I-human MCP-1 as the tracer ligand. hPBMCs were isolated from human leukopak (Biological Specialty Inc.) using a standard protocol with Ficoll-Hypaque (Mediatech Cellgro). Isolated hPBMCs were washed and diluted to 1×10^7/ml in binding buffer (RPMI-1640, 0.1% BSA, 20 mM Hepes, pH 7.4). ^125I-MCP-1 (NEN/Perk Elmer) was diluted to 0.45 nM in binding buffer. The compound was diluted in binding buffer at 3-fold the final concentrations used in the binding assay. The binding assay was performed using a 96-well filter plate (Millipore). Total ^125I-MCP-1 binding was assessed as follows: to each reaction of a total volume of 150 μl were added 5×10^5 cells, 0.15 nM […], and compound such that the final concentration ranged from 0 to 100 nM. The plate was incubated at room temperature for 30 minutes followed by three washes with RPMI-1640, 0.1% BSA, 0.4 M NaCl, 20 mM Hepes, pH 7.4 using a vacuum manifold filtration (Millipore). After washing, the plate was air-dried for 60 minutes at room temperature. This was followed by adding 25 μl of Microscint 20 into each well. The plate was sealed and counted on the Trilux for 1 minute. Non-specific binding was determined in the presence of 300 nM cold MCP-1 (PeproTech Inc.). Specific 1-MCP-1 was calculated as the difference between total and non-specific binding. All conditions were tested in duplicate.

human CCR2 [6] = target: T2, human CCR2; experiment: CCR2 chemotaxis (MCP-1-induced, THP-1 cells); type: cell-based; set-up: hPBMCs were isolated from human leukopak (Biological Specialty Inc.); endogenous in cells; host or cells: human peripheral blood mononuclear cells from leukopak (Biological Specialty Inc.)
Method: The human CCR2 chemotaxis assay was conducted with the human monocytic cell line, THP-1. THP-1 cells were first labeled with the fluorescent dye Calcein-AM in phenol red-free, BSA-free RPMI-1640 (pH 7.4) at 37° C. for 30 minutes with gentle mixing every 15 minutes. The labeled cells were then washed and re-suspended at 1×10^5/ml in chemotaxis buffer (phenol red-free RPMI-1640, 0.1% BSA, pH 7.4). The test compound was diluted in chemotaxis buffer such that the final assay concentration ranged from 0.01 nM to 1 μM. […] To perform the assay, an equal volume of test compound dilutions was mixed with an equal volume of labeled THP-1 cells (Mixture 1), and an equal volume of test compound dilutions was mixed with an equal volume of diluted MCP-1 ligand (Mixture 2). Both mixtures were incubated independently at 37° C. for 10 minutes followed by gentle mixing. MCP-1-induced chemotaxis was then measured in a chemotaxis plate (Becton Dickinson) by placing 50 μl of Mixture 1 in the top chamber and 225 μl of Mixture 2 in the bottom chamber. The plate was covered with a lid and incubated at 37° C. for 30 minutes. 30 minutes later, the plate was read on a Cytofluor. All conditions were tested in duplicate. […] The inhibition achieved by graded concentrations of test compound was calculated as a percentage of the compound-free MCP-1 control.

[7] = Single-dose pharmacokinetics in monkeys; type: in vivo; conditions: male, cynomolgus monkey, plasma, dose per compound (mg/kg); for clearance: IV; for AUC: PO; for bioavailability: oral bioavailability
From the text: (1500-2000×g) to obtain plasma.

[8] = Single-dose pharmacokinetics in rats; type: in vivo; conditions: male, Sprague-Dawley, plasma, rat, dose per compound (mg/kg); for AUC: PO; for clearance: IV; for bioavailability: oral bioavailability
Method: (1500-2000×g) to obtain plasma. […] Plasma samples, obtained by centrifugation at 4° C.

T1 sequence (Q12809 whole entry): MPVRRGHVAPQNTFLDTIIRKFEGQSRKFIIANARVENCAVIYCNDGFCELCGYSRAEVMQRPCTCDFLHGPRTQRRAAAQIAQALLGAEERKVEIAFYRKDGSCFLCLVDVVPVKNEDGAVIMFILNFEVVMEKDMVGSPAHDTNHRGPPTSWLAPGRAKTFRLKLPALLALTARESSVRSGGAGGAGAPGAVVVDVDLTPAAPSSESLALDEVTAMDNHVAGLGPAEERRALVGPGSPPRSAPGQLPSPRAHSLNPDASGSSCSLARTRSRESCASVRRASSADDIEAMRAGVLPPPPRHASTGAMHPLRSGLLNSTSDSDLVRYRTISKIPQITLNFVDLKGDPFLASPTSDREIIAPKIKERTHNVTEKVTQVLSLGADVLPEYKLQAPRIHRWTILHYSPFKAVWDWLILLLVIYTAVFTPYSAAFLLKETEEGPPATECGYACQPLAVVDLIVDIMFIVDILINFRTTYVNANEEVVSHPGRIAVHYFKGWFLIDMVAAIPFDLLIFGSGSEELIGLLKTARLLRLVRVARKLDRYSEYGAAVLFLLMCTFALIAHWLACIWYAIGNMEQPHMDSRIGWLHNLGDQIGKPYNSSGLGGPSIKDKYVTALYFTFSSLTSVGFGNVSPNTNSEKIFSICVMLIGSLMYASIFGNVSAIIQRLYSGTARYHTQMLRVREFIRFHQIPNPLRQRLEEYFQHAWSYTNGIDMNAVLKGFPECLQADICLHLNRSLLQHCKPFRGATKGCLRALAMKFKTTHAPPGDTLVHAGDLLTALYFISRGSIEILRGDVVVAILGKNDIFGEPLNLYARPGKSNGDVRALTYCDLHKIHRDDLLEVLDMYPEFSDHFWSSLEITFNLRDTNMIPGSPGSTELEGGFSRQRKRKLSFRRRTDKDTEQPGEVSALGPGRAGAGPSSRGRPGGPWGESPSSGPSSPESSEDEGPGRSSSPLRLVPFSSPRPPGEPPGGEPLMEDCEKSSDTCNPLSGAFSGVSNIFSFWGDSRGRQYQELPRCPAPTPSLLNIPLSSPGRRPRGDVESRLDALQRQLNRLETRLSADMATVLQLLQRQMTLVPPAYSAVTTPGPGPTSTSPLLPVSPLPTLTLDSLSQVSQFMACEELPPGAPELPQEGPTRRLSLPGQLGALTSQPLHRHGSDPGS
Chain of human cardiac sodium channel, SCN5A (Nav1.5) (Q14524 whole entry): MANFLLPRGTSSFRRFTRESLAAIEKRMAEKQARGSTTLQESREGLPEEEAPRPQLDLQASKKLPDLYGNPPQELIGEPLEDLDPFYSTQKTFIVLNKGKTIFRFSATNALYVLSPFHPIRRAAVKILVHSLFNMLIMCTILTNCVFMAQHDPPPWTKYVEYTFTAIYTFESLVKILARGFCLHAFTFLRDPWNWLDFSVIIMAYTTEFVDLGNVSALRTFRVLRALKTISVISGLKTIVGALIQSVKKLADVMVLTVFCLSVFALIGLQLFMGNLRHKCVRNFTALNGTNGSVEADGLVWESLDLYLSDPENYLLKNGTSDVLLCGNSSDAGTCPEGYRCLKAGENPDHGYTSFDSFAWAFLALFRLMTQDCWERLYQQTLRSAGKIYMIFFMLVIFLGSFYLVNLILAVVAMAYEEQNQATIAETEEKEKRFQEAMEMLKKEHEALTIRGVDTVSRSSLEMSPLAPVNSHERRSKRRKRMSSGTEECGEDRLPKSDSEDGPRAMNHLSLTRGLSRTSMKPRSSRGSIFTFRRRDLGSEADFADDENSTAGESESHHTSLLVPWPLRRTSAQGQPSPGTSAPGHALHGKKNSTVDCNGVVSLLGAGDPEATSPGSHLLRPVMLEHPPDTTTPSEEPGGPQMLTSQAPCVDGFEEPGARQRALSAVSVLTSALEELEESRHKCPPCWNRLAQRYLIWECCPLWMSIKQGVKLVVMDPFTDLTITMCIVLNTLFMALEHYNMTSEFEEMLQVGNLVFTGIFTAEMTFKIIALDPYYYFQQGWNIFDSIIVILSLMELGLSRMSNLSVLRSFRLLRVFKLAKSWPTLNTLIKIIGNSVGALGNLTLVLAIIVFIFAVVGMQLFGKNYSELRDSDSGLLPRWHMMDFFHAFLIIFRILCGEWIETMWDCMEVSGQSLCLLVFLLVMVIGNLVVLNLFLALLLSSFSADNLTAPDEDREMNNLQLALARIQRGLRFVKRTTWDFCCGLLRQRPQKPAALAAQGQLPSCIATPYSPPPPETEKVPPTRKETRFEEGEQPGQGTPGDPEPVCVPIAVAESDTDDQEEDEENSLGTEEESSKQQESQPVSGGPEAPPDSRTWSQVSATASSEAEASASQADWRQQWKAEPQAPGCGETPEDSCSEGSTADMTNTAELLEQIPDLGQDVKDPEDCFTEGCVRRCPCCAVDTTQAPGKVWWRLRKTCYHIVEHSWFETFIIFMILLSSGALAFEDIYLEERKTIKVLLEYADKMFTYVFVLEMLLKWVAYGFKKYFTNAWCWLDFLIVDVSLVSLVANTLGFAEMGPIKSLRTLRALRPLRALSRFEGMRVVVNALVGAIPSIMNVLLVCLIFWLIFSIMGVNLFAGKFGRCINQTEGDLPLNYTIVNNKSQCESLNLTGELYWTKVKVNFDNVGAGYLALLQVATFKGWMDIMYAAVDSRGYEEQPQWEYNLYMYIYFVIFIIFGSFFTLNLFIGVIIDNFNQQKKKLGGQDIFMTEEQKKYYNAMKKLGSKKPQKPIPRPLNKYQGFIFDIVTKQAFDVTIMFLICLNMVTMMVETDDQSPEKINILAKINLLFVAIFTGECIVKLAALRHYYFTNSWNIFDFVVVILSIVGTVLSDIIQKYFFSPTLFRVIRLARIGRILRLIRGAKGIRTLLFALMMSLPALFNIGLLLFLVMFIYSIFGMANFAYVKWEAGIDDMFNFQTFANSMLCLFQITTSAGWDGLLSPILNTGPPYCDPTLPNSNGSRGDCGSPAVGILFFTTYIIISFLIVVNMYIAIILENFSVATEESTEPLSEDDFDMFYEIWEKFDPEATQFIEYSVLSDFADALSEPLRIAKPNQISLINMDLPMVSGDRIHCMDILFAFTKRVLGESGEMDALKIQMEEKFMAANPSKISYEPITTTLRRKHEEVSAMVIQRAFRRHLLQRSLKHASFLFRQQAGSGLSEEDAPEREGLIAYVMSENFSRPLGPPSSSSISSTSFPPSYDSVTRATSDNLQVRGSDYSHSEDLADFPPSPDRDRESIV

| SMILES | IC50 (hERG [1]) | Papp at 4 h, 100 µM [2] | inhibition at 10000 nM (hERG [3]) | inhibition at 30000 nM (hERG [3]) | inhibition at 30000 nM [4] | IC50 (human CCR2 [5]) | IC50 (human CCR2 [6]) | clearance [7] | AUC [7] | bioavailability [7] | AUC [8] | clearance [8] | bioavailability [8] | inhibition at 100000 nM (hERG [3]; pH 7.4, 100,000 nM) |
| --- | --- | --- | --- | --- | --- | --- | --- | --- | --- | --- | --- | --- | --- | --- |
| CC(=O)N[C@@H]1C[C@H](N(C)C(C)C)CC[C@@H]1N1CC[C@H](Nc2ncnc3cnc(C(C)(C)C)nc23)C1=O [Example 1, N-((1R,2S,5R)-2-((3S)-3-((6-tert-butylpyrimido[5,4-d]pyrimidin-4-yl)amino)-2-oxo-1-pyrrolidinyl)-5-(isopropyl(methyl)amino)cyclohexyl)acetamide] | > 80000 nM | 18.7 ×10⁻⁶ cm/s | 8% | 17% | 13% | 3.34 ± 0.32 nM | 3.85 ± 0.36 nM | – | – | – | – | – | – | – |
| CN[C@@H]1CC[C@H](N2CC[C@H](Nc3ncnc4ccc(C(F)(F)F)cc34)C2=O)[C@H](NC(C)=O)C1 [Example 3, N-((1R,2S,5R)-5-(methylamino)-2-((3S)-2-oxo-3-((6-(trifluoromethyl)-4-quinazolinyl)amino)-1-pyrrolidinyl)cyclohexyl)acetamide] | > 80000 nM | – | 6% | 24% | 3% | 4.74 ± 0.58 nM | – | 15 mL/min/kg | 2.05 µM·h | 91% | – | – | – | – |
| CC(=O)N[C@@H]1C[C@H](N(C)C)CC[C@@H]1N1CC[C@H](Nc2ncnc3ccc(C(F)(F)F)cc23)C1=O [Example 8, N-((1R,2S,5R)-5-(dimethylamino)-2-((3S)-2-oxo-3-((6-(trifluoromethyl)-4-quinazolinyl)amino)-1-pyrrolidinyl)cyclohexyl)acetamide] | > 80000 nM | – | 18% | 37% | 11% | 3.58 ± 0.78 nM | 4.09 ± 1.21 nM | – | 0.558 µM·h | – | 7.28 µM·h | – | – | – |
| CC(C)(C)N[C@@H]1CC[C@H](N2CC[C@H](NC(=O)c3ccnc(C(C)(C)C)n3)C2=O)[C@H](NS(C)(=O)=O)C1 [Example 11, 2-tert-butyl-N—((S)-1-((1S,2R,4R)-4-(tert-butylamino)-2-(methylsulfonamido)cyclohexyl)-2-oxopyrrolidin-3-yl)pyrimidine-4-carboxamide] | > 80000 nM | 35 ×10⁻⁶ cm/s | – | 15% | – | 1.91 ± 0.52 nM | 0.92 nM | – | – | – | 3.04 µM·h | 56 mL/min/kg | 52% | – |
| CCC(=O)N[C@@H]1C[C@H](NC(C)(C)C)CC[C@@H]1N1CC[C@H](NC(=O)c2ccnc(C(C)(C)C)n2)C1=O [Example 12, 2-tert-butyl-N-((3S)-1-((1S,2R,4R)-4-(tert-butylamino)-2-(propionylamino)cyclohexyl)-2-oxo-3-pyrrolidinyl)-4-pyrimidinecarboxamide] | > 80000 nM | 23.9 ×10⁻⁶ cm/s | 6% | 7% | – | 4.49 ± 1.35 nM | – | – | 0.413 µM·h | – | 5.23 µM·h | 59 mL/min/kg | 91% | – |
| CC(C)(C)N[C@@H]1CC[C@H](N2CC[C@H](Nc3ncnc4cnc(C(C)(C)C)nc34)C2=O)[C@H](NS(C)(=O)=O)C1 [Example 13, N-((1R,2S,5R)-5-(tert-butylamino)-2-((3S)-3-((6-tert-butylpyrimido[5,4-d]pyrimidin-4-yl)amino)-2-oxo-1-pyrrolidinyl)cyclohexyl)methanesulfonamide] | > 80000 nM | 54.1 ± 6.3 ×10⁻⁶ cm/s | – | 10% | – | 4.02 ± 1.31 nM | 0.49 nM | – | 0.263 µM·h | – | 10.5 µM·h | 26 mL/min/kg | 88% | – |
| CO[C@@H]1CC[C@H](N2CC[C@H](Nc3ncnc4ccc(C(F)(F)F)cc34)C2=O)[C@H](CNC(C)=O)C1 [Example 15, N-(((1S,2S,5R)-5-methoxy-2-((3S)-2-oxo-3-((6-(trifluoromethyl)-4-quinazolinyl)amino)-1-pyrrolidinyl)cyclohexyl)methyl)acetamide] | > 80000 nM | 18.6 ×10⁻⁶ cm/s | – | 29% | – | 3.34 ± 0.71 nM | 0.92 ± 0.67 nM | 28 mL/min/kg | 0.333 µM·h | 19% | 16.2 µM·h | 23 mL/min/kg | 93% | 47% |
